Columns and labels:
[1] = tested on: hepatitis C virus (HCV) replicon; experiment: HCV Replicon Cell Assay; format: cell-based
Experimental: Cells containing hepatitis C virus (HCV) replicon were maintained in DMEM containing 10% fetal bovine serum (FBS), 0.25 mg per ml of G418, with appropriate supplements (media A).
On day 1, replicon cell monolayer was treated with a trypsin:EDTA mixture, removed, and then media A was diluted into a final concentration of 100,000 cells per ml wit. 10,000 cells in 100 μl were plated into each well of a 96-well tissue culture plate, and cultured overnight in a tissue culture incubator at 37° C.
On day 2, compounds (in 100% DMSO) were serially diluted into DMEM containing 2% FBS, 0.5% DMSO, with appropriate supplements (media B). The final concentration of DMSO was maintained at 0.5% throughout the dilution series.
Media on the replicon cell monolayer was removed, and then media B containing various concentrations of compounds was added. […]
A Taqman real-time RT-PCR quantification assay was set up with two sets of specific primers and probe. […] Total RNA extractants from treated HCV replicon cells was added to the PCR reactions for quantification of both HCV and BVDV RNA in the same PCR well. […] The level of HCV RNA in each well was calculated according to a standard curve run in the same PCR plate. The percentage of inhibition or decrease of HCV RNA level due to compound treatment was calculated using the DMSO or no compound control as 0% of inhibition. […]

genotype 1 HCV = experiment: ADVANCE trial: SVR rates, overall and by IL28B genotype; format: in vivo, Hepatitis C virus; conditions: for SVR rate: overall (full analysis population)
Experimental: IL28B genotype was determined in de-identified left-over specimens available from treatment-naïve genotype 1 HCV patients from ADVANCE U.S. sites. Due to the requirements of the de-identification procedure, only samples from Caucasian patients were tested. A series of associated clinical data was retained with the de-identified samples: HCV genotype, prior treatment response, assigned study arm, study completion, RVR, SVR, baseline viral load, EVR, undetectable at EOT.
IL28B genotyping was performed using 100 ng DNA from whole blood or peripheral blood mononuclear cell preparations with TaqMan® PCR, rs12979860 (ABI)

HCV = experiment: REALIZE trial: SVR by IL28B genotype in Peg-IFN/RBV experienced patients; format: in vivo, Hepatitis C virus; conditions: TVR 750 mg every 8 hours in combination with Peg-IFN/RBV, treatment-experienced patients
Experimental: This exploratory sub-analysis evaluated virologic response by IL28B genotype (rs12979860) in the Phase III TVR REALIZE trial. REALIZE is an international, multicentre, randomized, double-blind, placebo-controlled trial in Peg-IFN/RBV experienced patients; including prior relapsers, prior partial responders and prior null responders. Patients were included in this sub-analysis if they had consented to genetic testing.
FIG. 1 is a graphic depiction of the REALIZE study design. Drugs were administered in the following dosages: Peg-IFN alfa-2a=180 μg/week; RBV=1000-1200 mg/day; TVR=750 mg every 8 hours; Pbo=placebo. Overall, 527/662 (80%) patients enrolled in REALIZE consented to genetic testing; Data from T12/PR48 and T12(DS)/PR48 arms were pooled since no differences were observed between TVR arms. Randomization was stratified by viral load and prior response. Stopping rules were applied for TVR (Weeks 4, 6, and 8) and Peg-IFN/RBV (Weeks 12, 24, and 36).

Compound: CCC[C@H](NC(=O)[C@@H]1[C@H]2CCC[C@H]2CN1C(=O)[C@@H](NC(=O)[C@@H](NC(=O)c1cnccn1)C1CCCCC1)C(C)(C)C)C(=O)C(=O)NC1CC1 [VX-950]
- activity in the replicon assay [1]: significant activity
- SVR rate (genotype 1 HCV; T8PR arm): 69%
- SVR rate (genotype 1 HCV; T12PR arm): 75%
- SVR (genotype 1 HCV; T12PR, IL28B CC): 90%
- patients receiving 24 weeks of total therapy (genotype 1 HCV; T12PR, IL28B CC): 78%
- SVR (genotype 1 HCV; T12PR, IL28B CT): 71%
- SVR (genotype 1 HCV; T12PR, IL28B TT): 73%
- RVR and eRVR rates compared to peginterferon alfa-2a/ribavirin alone (genotype 1 HCV; telaprevir-based regimen): improved RVR and eRVR rates across all IL28B genotypes
- achieved SVR (genotype 1 HCV; telaprevir-based regimen, eRVR, IL28B CC): 97%
- achieved SVR (genotype 1 HCV; telaprevir-based regimen, eRVR, IL28B CT): 88%
- achieved SVR (genotype 1 HCV; telaprevir-based regimen, eRVR, IL28B TT): 85%
- achieved SVR (genotype 1 HCV; telaprevir-based regimen, no eRVR, IL28B CC): 63%
- achieved SVR (genotype 1 HCV; telaprevir-based regimen, no eRVR, IL28B CT): 33%
- achieved SVR (genotype 1 HCV; telaprevir-based regimen, no eRVR, IL28B TT): 46%
- achieved SVR (genotype 1 HCV; telaprevir-based regimen, patients who did not have eRVR (48 weeks of therapy)): 43%
- achieved SVR (genotype 1 HCV; telaprevir-based regimen, patients who had eRVR (24 weeks of therapy)): 91%
- SVR rates versus Peg-IFN/RBV alone (HCV): increased SVR rates across all IL28B genotypes

From patent US20130273003A1, “Therapies for Treating Hepatitis C Virus Infection” (priority 2012, published 2013)
